Tested on: HUVEC/MSC spheroids viability
Experiment: Human HUVEC/MSC cell line growth inhibition [KRAS2];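 on viability, T/C: percent of DMSO vehicle control luminescence so 100% = untreated viability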
Conditions: for IC50: curve of first compound; for viability, T/C: stronger effect = lower value
Method in brief: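 Concentration ranges start near each agent's clinical Cmax, or at 10 microM if none is established, and fall by half-log increments. These ranges are tested as single agents and combinations on endothelial/mesenchymal stem cell spheroids lacking tumour cells.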

[1] = second compound 0.0316 µM, first compound 0.0316 µM
[2] = second compound 0.0316 µM, first compound 0.1 µM
[3] = second compound 0.0316 µM, first compound 0.316 µM
[4] = second compound 0.0316 µM, first compound 1 µM
[5] = second compound 0.0316 µM, first compound 3.16 µM
[6] = second compound 0.0316 µM, first compound 10 µM
[7] = second compound 0.1 µM, first compound 0.0316 µM
[8] = second compound 0.1 µM, first compound 0.1 µM
[9] = second compound 0.1 µM, first compound 0.316 µM
[10] = second compound 0.1 µM, first compound 1 µM
[11] = second compound 0.1 µM, first compound 3.16 µM
[12] = second compound 0.1 µM, first compound 10 µM
[13] = second compound 0.316 µM, first compound 0.0316 µM
[14] = second compound 0.316 µM, first compound 0.1 µM
[15] = second compound 0.316 µM, first compound 0.316 µM
[16] = second compound 0.316 µM, first compound 1 µM
[17] = second compound 0.316 µM, first compound 3.16 µM
[18] = second compound 0.316 µM, first compound 10 µM
[19] = second compound 1 µM, first compound 0.0316 µM
[20] = second compound 1 µM, first compound 0.1 µM
[21] = second compound 1 µM, first compound 0.316 µM
[22] = second compound 1 µM, first compound 1 µM
[23] = second compound 1 µM, first compound 3.16 µM
[24] = second compound 1 µM, first compound 10 µM
[25] = second compound 3.16 µM, first compound 0.0316 µM
[26] = second compound 3.16 µM, first compound 0.1 µM
[27] = second compound 3.16 µM, first compound 0.316 µM
[28] = second compound 3.16 µM, first compound 1 µM
[29] = second compound 3.16 µM, first compound 3.16 µM
[30] = second compound 3.16 µM, first compound 10 µM
[31] = second compound 10 µM, first compound 0.0316 µM
[32] = second compound 10 µM, first compound 0.1 µM
[33] = second compound 10 µM, first compound 0.316 µM
[34] = second compound 10 µM, first compound 1 µM
[35] = second compound 10 µM, first compound 3.16 µM
[36] = second compound 10 µM, first compound 10 µM

Work on COC(=O)c1ccc2c(C(=Nc3ccc(N(C)C(=O)CN4CCN(C)CC4)cc3)c3ccccc3)c(O)[nH]c2c1 + CNCc1ccccc1-c1csc(C(C)Nc2nc(C)nc3cc(OC)c(OC)cc23)c1 yielded an IC50 (second compound 0.0316 µM) of 1550 nM, an IC50 (second compound 0.1 µM) of 1470 nM and an IC50 (second compound 0.316 µM) of 1420 nM. It also gave an IC50 (second compound 1 µM) of 1190 nM, an IC50 (second compound 3.16 µM) of 988 nM and an IC50 (second compound 10 µM) of under 31.6 nM. The viability, T/C [1] was 77%, the viability, T/C [2] was 117% and the viability, T/C [3] was 76.5%. It also gave a viability, T/C [4] of 53.4%, a viability, T/C [5] of 37.9% and a viability, T/C [6] of 0.32%. For the same molecule, the viability, T/C [7] was 76.7%, the viability, T/C [8] was 103% and the viability, T/C [9] was 87.3%. It also gave a viability, T/C [10] of 48.4%, a viability, T/C [11] of 36.9% and a viability, T/C [12] of 0.41%. It also gave a viability, T/C [13] of 74.6%, a viability, T/C [14] of 125% and a viability, T/C [15] of 90.9%. For the same molecule, the viability, T/C [16] was 53.1%, the viability, T/C [17] was 31.9% and the viability, T/C [18] was 0.39%. The viability, T/C [19] was 72.9%, the viability, T/C [20] was 85.9% and the viability, T/C [21] was 72.3%. The viability, T/C [22] was 57.5%, the viability, T/C [23] was 10.4% and the viability, T/C [24] was 0.24%. The viability, T/C [25] was 103%, the viability, T/C [26] was 95.8% and the viability, T/C [27] was 84%. It also gave a viability, T/C [28] of 53.1%, a viability, T/C [29] of 0.34% and a viability, T/C [30] of 0.27%. The viability, T/C [31] was 0.37%, the viability, T/C [32] was 0.4% and the viability, T/C [33] was 0.49%. For the same molecule, the viability, T/C [34] was 0.51%, the viability, T/C [35] was 0.34% and the viability, T/C [36] was 0.2%.
Molecule O=C(c1cc(Cc2n[nH]c(=O)c3ccccc23)ccc1F)N1CCN(C(=O)C2CC2)CC1 + CNCc1ccccc1-c1csc(C(C)Nc2nc(C)nc3cc(OC)c(OC)cc23)c1 has an IC50 (second compound 0.0316 µM) of over 10000 nM, an IC50 (second compound 0.1 µM) of over 10000 nM and an IC50 (second compound 0.316 µM) of over 10000 nM. For the same molecule, the IC50 (second compound 1 µM) was over 10000 nM, the IC50 (second compound 3.16 µM) was over 10000 nM and the IC50 (second compound 10 µM) was under 31.6 nM. It also gave a viability, T/C [1] of 95.6%, a viability, T/C [2] of 92.6% and a viability, T/C [3] of 93.1%. It also gave a viability, T/C [4] of 84.2%, a viability, T/C [5] of 80.3% and a viability, T/C [6] of 72%. It also gave a viability, T/C [7] of 87.1%, a viability, T/C [8] of 91.4% and a viability, T/C [9] of 92.1%. The viability, T/C [10] was 78.2%, the viability, T/C [11] was 81.9% and the viability, T/C [12] was 96%. It also gave a viability, T/C [13] of 84.6%, a viability, T/C [14] of 92.2% and a viability, T/C [15] of 76.7%. The viability, T/C [16] was 92.3%, the viability, T/C [17] was 89.8% and the viability, T/C [18] was 93.9%. The viability, T/C [19] was 70%, the viability, T/C [20] was 84.7% and the viability, T/C [21] was 85.5%. The viability, T/C [22] was 81.1%, the viability, T/C [23] was 78% and the viability, T/C [24] was 104%. It also gave a viability, T/C [25] of 95.7%, a viability, T/C [26] of 87.8% and a viability, T/C [27] of 98.2%. It also gave a viability, T/C [28] of 105%, a viability, T/C [29] of 92.3% and a viability, T/C [30] of 95.8%. The viability, T/C [31] was 0.39%, the viability, T/C [32] was 0.43% and the viability, T/C [33] was 0.37%. It also gave a viability, T/C [34] of 0.34%, a viability, T/C [35] of 0.39% and a viability, T/C [36] of 0.41%.
